US20260060947A1 (INSTITUT PASTEUR DE MONTEVIDEO, priority 2019, published 2026)
Entries after “also recorded” stand apart in the source; their conditions may differ.

Tests used:
IL-1β = IL-1β in peritoneum and plasma of LPS-injected mice (ELISA); format: in vivo; conditions: 50 mg/kg IP 1 h before LPS 10 mg/kg, measured 3 h later, compared to vehicle and BA
Procedure: BANA (50 mg/kg), BA (50 mg/kg) or vehicle, were intraperitoneally (IP) injected 1 h before LPS intraperitoneal administration (10 mg/kg). 3 h later, IL-1β levels were measured in the peritoneum and plasma by ELISA.
In turn, BANA was able to reduce IL-1β concentration in plasma and peritoneum of mice intraperitoneally injected with LPS respect to controls (FIGS. 8A-1 and 8A-2). BANA (50 mg/kg), BA (50 mg/kg) or vehicle, were intraperitoneally (IP) injected 1 h before LPS intraperitoneal administration (10 mg/kg). 3 h later, IL-1β levels were measured in the peritoneum and plasma by ELISA. […] All data are expressed as mean±SEM; data were analyzed by Ordinary one-way ANOVA followed by Tukey's multiple comparisons test, ***p=0.0002 ****p<0,0001. n=3 animals per condition.

SOD1^G93A rats [1] = assay: Post-paralysis survival trial in SOD1^G93A rats; format: in vivo, rat
Procedure: Only female transgenic rats showing weakness and gait alterations in the […] as the first clinical sign were selected for BANA treatment studies. Rats were divided randomly into BANA or vehicle-treated groups. BANA was freshly prepared in buffer phosphate (PB), and administrated daily at a dose of 100 mg/kg using a curved stainless steel gavage needle with 3-mm ball tip. Rats were treated from day-1 post-paralysis for 15 days or until end-stage when they were euthanized.
All rats were weighed and evaluated for motor activity daily. Disease onset was determined for each animal when pronounced muscle atrophy accompanied by abnormal gait, typically expressed as subtle limping or dragging of one hind limb. End-stage was defined by a lack of righting reflexes or the inability to reach food and water.
Survival curves were compared by Kaplan-Meier analysis with the Log-rank test using GraphPad Prism 7 software.
To test whether systemic treatment with BANA could prolong the survival of SOD1^G93A rats, a trial was conducted in which rats were orally treated with BANA (100 mg/kg/day) or vehicle, starting immediately after paralysis onset of one hind limb until the end-stage of the disease.

NF-κB = assay: LPS-induced NF-κB activation in NF-κB-RE-Luc reporter mouse; format: in vivo; conditions: intraperitoneal, 2 h before LPS; BANA 10, 20 and 30 mg/kg; BA 30 mg/kg; DMF 30 mg/kg
Procedure: To determine whether BANA was capable of preventing LPS-induced NF-κB activation, intraperitoneal administration of BANA (10, 20, and 30 mg/kg) were followed by LPS intraperitoneal administration to an NF-κB-reporter transgenic mouse.

SOD1^G93A rats [2] = assay: Motor neuron analysis in lumbar spinal cord (ChAT, soma size, ubiquitin, nitrotyrosine, synaptic terminals); format: in vivo, rat
Procedure: One of the main features of ALS in both human patients and animal models is motor neuron loss, thus the effect of BANA on motor neuron size and number was characterized. To further investigate the protective effect of BANA on motor neuron pathology in SOD1^G93A symptomatic rats, experiments were conducted to assess the number of synaptic terminals contacting motor neuron cell bodies in the ventral spinal cord as well as the denervation of neuromuscular junctions.
The number of motor neurons expressing ChAT was assessed by counting the positive cells in the gray matter of the lumbar spinal cord of non-transgenic compared with symptomatic SOD1^G93A onset, vehicle- and BANA treated rats. Motor neuron counting was assessed by counting ChAT positive cells in the ventral horn on eight 30 μm sections taken 100 μm apart. The longest axis (length) of each soma was taken into consideration to quantify the mean size of motor neuron soma. The analysis was performed manually in at least 10 histological sections per animal (four different rats for each condition) using the cell counter tool of the ImageJ software. Statistical studies were performed using statistical tools of the GraphPad Prism 7 software. Descriptive statistics were used for each group, and Kruskal-Wallis analysis followed by Dunn's comparison test was used among groups. Results are presented as mean±SEM, with p<0.05 considered significant.
In other experiments, the number of synaptic vesicles contacting motor neuron cell bodies was assessed by immunohistochemistry by counting VGlut-1-positive and Synaptophysin-positive puncta in Rexed laminae VII and IX. Synaptic terminals were quantified in at least 20 motor neurons per animal (4 different rats per condition) using the Analyze Particles tool of ImageJ software.

[3] = oral 100 mg/kg/day from paralysis onset until end-stage
[4] = 100 mg/kg/day, 15 days after paralysis onset, vs vehicle

## O=C(O)c1ccc(/C=C/[N+](=O)[O-])cc1 [BANA, (E)-4-(2-nitrovinyl) benzoic acid]
IL-1β
  IL-1β concentration in plasma: significantly reduces
  IL-1β concentration in the peritoneum: significantly reduces
SOD1^G93A rats [1]; [3]
  increase probability of survival compared with vehicle-treated rats: 32%
  mean survival time: evidence of a survival benefit
SOD1^G93A rats [1]; oral, starting after disease onset
  post-paralysis survival prolonged respect to vehicle: 32%
NF-κB
  LPS-induced NF-κB activation in vivo: significantly decreased; also recorded: significantly inhibited
SOD1^G93A rats [2]; 100 mg/kg/day post-paralysis, vs vehicle
  loss of VGlut-1-positive and Synaptophysin-positive synaptic terminals: significantly prevented
SOD1^G93A rats [2]; 100 mg/kg/day, 15 days after paralysis onset
  number of ChAT+ motor neurons: prevented motor neuron loss
SOD1^G93A rats [2]; [4]
  NO2-Tyrosine accumulation in surviving motor neurons: significantly prevented
  motor neuron size: ameliorated
  ubiquitin accumulation / aggregation in motor neurons: significantly prevented
